Measurements as given in patent publication US20250195536A1, “BICYCLOOCTANE KRAS INHIBITORS” (Incyte Corporation, priority 2023, published 2025).

Experiments:
KRAS G12D = KRAS G12D (Homo sapiens, UniProt P01116, G12D); assay: GDP-GTP exchange assay (KRAS G12D); type: biochemical; settings: bodipy-GDP/GppNHp exchange with SOS1; 4 h pre-incubation, 2 h reaction;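 also: one dagger IC50 up to 100 nM and two daggers above 100 nM up to 1 μM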
How it was run: (§1)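 IC50 came from a four-parameter fit of fluorescence loss (485/520 nm) as SOS1 (150 nM) swapped bodipy-GDP for GppNHp (500 μM) on 2.5 nM KRAS, final concentrations. Compounds were pre-incubated 4 h at r.t. (pH 7.5 Hepes, 10 mM MgCl2); exchange ran 2 h (G12D) or 3 h (G12V).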

[1] = Caco2 assay (permeability, Papp A-B); type: in vitro ADME; settings: human, Caco-2, absorptive direction (A-B), 50 μM test compound, 4% BSA in receiver
Description: Caco-2 cells are grown at 37° C. in an atmosphere of 5% CO2 in DMEM growth medium supplemented with 10% (v/v) fetal bovine serum, 1% (v/v) nonessential amino acids, penicillin (100 U/mL), and streptomycin (100 μg/mL). Confluent cell monolayers are subcultured every 7 days or 4 days for Caco-2 by treatment with 0.05% trypsin containing […]. Caco-2 cells are seeded in 96-well Transwell plates. The seeding density for Caco-2 cells is 14,000 cells/well. DMEM growth medium is replaced every other day after seeding. Cell monolayers are used for transport assays between 22 and 25 days for Caco-2 cells.
Cell culture medium is removed and replaced with HBSS. To measure the TEER, the HBSS is added into the donor compartment (apical side) and receiver compartment (basolateral side). The TEER is measured by using a REMS Autosampler to ensure the integrity of the cell monolayers. Caco-2 cell monolayers with TEER values 300 Ω·cm^2 are used for transport experiments. To determine the Papp in the absorptive direction (A-B), solution of test compound (50 μM) in HBSS is added to the donor compartment (apical side), while HBSS solution with 4% BSA is added to the receiver compartment (basolateral side). The apical volume was 0.075 mL, and the basolateral volume is 0.25 mL. The incubation period is 120 min. at 37° C. in an atmosphere of 5% CO2. At the end of the incubation period, samples from the donor and receiver sides are removed and an equal volume of MeCN is added for protein precipitation. The supernatants are collected after centrifugation (3000 rpm, Allegra X-14R Centrifuge from Beckman Coulter, Indianapolis, IN) for LCMS analysis. The permeability value is determined according to the equation:
Papp(cm/s)=(F*VD)/(SA*MD),
where the flux rate (F, mass/time) is calc. from the slope of cumulative amounts of compound of interest on the receiver side, SA is the surface area of the cell membrane, VD is the donor volume, and MD is the initial amount of the solution in the donor chamber.
The symbol “+” indicates a Caco-2 value of ≤0.5, “++” indicates a Caco-2 value of >0.5 but ≤1; and “+++” indicates a Caco-2 value of >1. “NA” indicates Caco-2 value not available.

KRAS G12V = KRAS G12V (Homo sapiens, UniProt P01116, G12V); assay: GDP-GTP exchange assay (KRAS G12V); type: biochemical; settings: bodipy-GDP/GppNHp exchange with SOS1; 3 h incubation after GppNHp-SOS1;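 also: one dagger IC50 up to 100 nM and two daggers above 100 nM up to 1 μM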
KRAS G12V, sequence (P01116 1-188 isoform P01116-2 G12V): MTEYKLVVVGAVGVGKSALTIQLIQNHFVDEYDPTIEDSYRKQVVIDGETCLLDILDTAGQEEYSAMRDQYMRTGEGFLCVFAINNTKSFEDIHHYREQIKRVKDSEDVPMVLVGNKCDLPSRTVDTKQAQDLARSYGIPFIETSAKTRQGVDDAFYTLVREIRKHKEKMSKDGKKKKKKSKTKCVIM
How it was run: as §1

KRAS G12D, sequence (P01116 1-188 isoform P01116-2 G12D): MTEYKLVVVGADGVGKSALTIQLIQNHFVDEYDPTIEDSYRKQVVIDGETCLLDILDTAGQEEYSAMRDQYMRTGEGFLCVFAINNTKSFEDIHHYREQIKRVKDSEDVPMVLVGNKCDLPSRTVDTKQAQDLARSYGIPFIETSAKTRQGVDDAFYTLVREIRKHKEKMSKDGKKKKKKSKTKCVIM

G12D_exchange (KRAS_G12D exchange assay IC50) (KRAS G12D)	Papp A→B at 120 min, 50 μM [1]	G12V_exchange (KRAS_G12V exchange assay IC50) (KRAS G12V)	SMILES
††	≤ 0.5 ×10⁻⁶ cm/s	†	Cc1nc2c(F)c(-c3cccc(Cl)c3Cl)c(CCC#N)cc2c2c1cc([C@H]1[C@H]3C[C@H](CN(c4cccc(OC(F)F)c4)C3)N1C(=O)C1CC1)n2[C@H]1[C@H]2CN[C@@H]1C2 (atropisomer, axis not shown; (Ra)) [Example 26, 3-((Ra)-1-((1R,4R,5S)-2-azabicyclo[2.1.1]hexan-5-yl)-2-((1S,5R,7R)-6-(cyclopropanecarbonyl)-3-(3-(difluoromethoxy)phenyl)-3,6-diazabicyclo[3.2.1]octan-7-yl)-7-(2,3-dichlorophenyl)-6-fluoro-4-methyl-1H-pyrrolo[3,2-c]quinolin-8-yl)propanenitrile]
†	≤ 0.5 ×10⁻⁶ cm/s	†	Cc1nc2c(F)c(-c3cccc(Cl)c3Cl)c(CCC#N)cc2c2c1cc([C@H]1[C@H]3C[C@H](CN(c4cnn(C(F)(F)F)c4)C3)N1C(=O)C1CC1)n2[C@H]1[C@H]2CN[C@@H]1C2 (atropisomer, axis not shown; (Ra)) [Example 27, 3-((Ra)-1-((1R,4R,5S)-2-azabicyclo[2.1.1]hexan-5-yl)-2-((1S,5R,7R)-6-(cyclopropanecarbonyl)-3-(1-(trifluoromethyl)-1H-pyrazol-4-yl)-3,6-diazabicyclo[3.2.1]octan-7-yl)-7-(2,3-dichlorophenyl)-6-fluoro-4-methyl-1H-pyrrolo[3,2-c]quinolin-8-yl)propanenitrile]
††	≤ 0.5 ×10⁻⁶ cm/s	†	Cc1nc2c(F)c(-c3cccc(Cl)c3Cl)c(CCC#N)cc2c2c1cc([C@H]1[C@H]3C[C@H](CN(c4ccc(OC(F)(F)F)cc4F)C3)N1C(=O)C1CC1)n2[C@H]1[C@H]2CN[C@@H]1C2 (atropisomer, axis not shown; (Ra)) [Example 28, 3-((Ra)-1-((1R,4R,5S)-2-azabicyclo[2.1.1]hexan-5-yl)-2-((1S,5R,7R)-6-(cyclopropanecarbonyl)-3-(2-fluoro-4-(trifluoromethoxy)phenyl)-3,6-diazabicyclo[3.2.1]octan-7-yl)-7-(2,3-dichlorophenyl)-6-fluoro-4-methyl-1H-pyrrolo[3,2-c]quinolin-8-yl)propanenitrile]
†	≤ 0.5 ×10⁻⁶ cm/s	†	Cc1nc2c(F)c(-c3cccc(Cl)c3Cl)c(CCC#N)cc2c2c1cc([C@H]1[C@H]3C[C@H](CN(c4cn(C)nc4C(F)(F)F)C3)N1C(=O)C1CC1)n2[C@H]1[C@H]2CN[C@@H]1C2 (atropisomer, axis not shown; (Ra)) [Example 29, 3-((Ra)-1-((1R,4R,5S)-2-azabicyclo[2.1.1]hexan-5-yl)-2-((1S,5R,7R)-6-(cyclopropanecarbonyl)-3-(1-methyl-3-(trifluoromethyl)-1H-pyrazol-4-yl)-3,6-diazabicyclo[3.2.1]octan-7-yl)-7-(2,3-dichlorophenyl)-6-fluoro-4-methyl-1H-pyrrolo[3,2-c]quinolin-8-yl)propanenitrile]

Further lines, the compound ahead of its results:

SMILES	G12D_exchange (KRAS_G12D exchange assay IC50) (KRAS G12D)	Papp A→B at 120 min, 50 μM [1]	G12V_exchange (KRAS_G12V exchange assay IC50) (KRAS G12V)
Cc1nc2c(F)c(-c3cccc(Cl)c3Cl)c(CCC#N)cc2c2c1cc([C@H]1[C@H]3C[C@H](CN(c4cncc(C(F)(F)F)c4)C3)N1C(=O)C1CC1)n2[C@H]1[C@H]2CN[C@@H]1C2 (atropisomer, axis not shown; (Ra)) [Example 21, 3-((Ra)-1-((1R,4R,5S)-2-azabicyclo[2.1.1]hexan-5-yl)-2-((1S,5R,7R)-6-(cyclopropanecarbonyl)-3-(5-(trifluoromethyl)pyridin-3-yl)-3,6-diazabicyclo[3.2.1]octan-7-yl)-7-(2,3-dichlorophenyl)-6-fluoro-4-methyl-1H-pyrrolo[3,2-c]quinolin-8-yl)propanenitrile]	†	≤ 0.5 ×10⁻⁶ cm/s	†
Cc1nc2c(F)c(-c3cccc(Cl)c3Cl)c(CCC#N)cc2c2c1cc([C@H]1[C@H]3C[C@H](CN(c4ccc(C(F)F)nc4)C3)N1C(=O)C1CC1)n2[C@H]1[C@H]2CN[C@@H]1C2 (atropisomer, axis not shown; (Ra)) [Example 22, 3-((Ra)-1-((1R,4R,5S)-2-azabicyclo[2.1.1]hexan-5-yl)-2-((1S,5R,7R)-6-(cyclopropanecarbonyl)-3-(6-(difluoromethyl)pyridin-3-yl)-3,6-diazabicyclo[3.2.1]octan-7-yl)-7-(2,3-dichlorophenyl)-6-fluoro-4-methyl-1H-pyrrolo[3,2-c]quinolin-8-yl)propanenitrile]	†	≤ 0.5 ×10⁻⁶ cm/s	†
Cc1nc2c(F)c(-c3cccc(Cl)c3Cl)c(CCC#N)cc2c2c1cc([C@H]1[C@H]3C[C@H](CN(c4ccc(F)cc4)C3)N1C(=O)C1CC1)n2[C@H]1[C@H]2CN[C@@H]1C2 (atropisomer, axis not shown; (Ra)) [Example 23, 3-((Ra)-1-((1R,4R,5S)-2-azabicyclo[2.1.1]hexan-5-yl)-2-((1S,5R,7R)-6-(cyclopropanecarbonyl)-3-(4-fluorophenyl)-3,6-diazabicyclo[3.2.1]octan-7-yl)-7-(2,3-dichlorophenyl)-6-fluoro-4-methyl-1H-pyrrolo[3,2-c]quinolin-8-yl)propanenitrile]	†	≤ 0.5 ×10⁻⁶ cm/s	†
COc1ccc(N2C[C@@H]3C[C@H](C2)N(C(=O)C2CC2)[C@H]3c2cc3c(C)nc4c(F)c(-c5cccc(Cl)c5Cl)c(CCC#N)cc4c3n2[C@H]2[C@H]3CN[C@@H]2C3)cn1 (atropisomer, axis not shown; (Ra)) [Example 24, 3-((Ra)-1-((1R,4R,5S)-2-azabicyclo[2.1.1]hexan-5-yl)-2-((1S,5R,7R)-6-(cyclopropanecarbonyl)-3-(6-methoxypyridin-3-yl)-3,6-diazabicyclo[3.2.1]octan-7-yl)-7-(2,3-dichlorophenyl)-6-fluoro-4-methyl-1H-pyrrolo[3,2-c]quinolin-8-yl)propanenitrile]	††	≤ 0.5 ×10⁻⁶ cm/s	†
Cc1nc2c(F)c(-c3cccc(Cl)c3Cl)c(CCC#N)cc2c2c1cc([C@H]1[C@H]3C[C@H](CN(c4ccc(OC(F)F)cc4)C3)N1C(=O)C1CC1)n2[C@H]1[C@H]2CN[C@@H]1C2 (atropisomer, axis not shown; (Ra)) [Example 25, 3-((Ra)-1-((1R,4R,5S)-2-azabicyclo[2.1.1]hexan-5-yl)-2-((1S,5R,7R)-6-(cyclopropanecarbonyl)-3-(4-(difluoromethoxy)phenyl)-3,6-diazabicyclo[3.2.1]octan-7-yl)-7-(2,3-dichlorophenyl)-6-fluoro-4-methyl-1H-pyrrolo[3,2-c]quinolin-8-yl)propanenitrile]	††	≤ 0.5 ×10⁻⁶ cm/s	†
